Data published in the supplement of paper PMC8612539.
Converted amounts (≈) assume the structure as drawn.

Tested on: Pasteurella multocida
Assay: minimum inhibitory concentration (MIC)
Procedure: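 Broth microdilution MIC (Sensititre BOPO7F bovine plate, CLSI methods) of 19 antimicrobials against field isolates of P. multocida, M. haemolytica, H. somni (deep nasopharyngeal swabs) and E. coli, Enterococcus spp. (rectal swabs) from weaned dairy heifers. Incubation 16-24 h at 35 C. MIC is the lowest concentration preventing visible growth. Values with <= or > lie at the tested range limits. Trimethoprim-sulfamethoxazole is given as the trimethoprim component of a 1:19 mixture.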

CCCN1C[C@H](C)[C@@H](O)[C@](C)(O)[C@@H](CC)OC(=O)[C@H](C)[C@@H](O[C@H]2C[C@@](C)(OC)[C@@H](O)[C@H](C)O2)[C@H](C)[C@@H](O[C@@H]2O[C@H](C)C[C@H](N(C)C)[C@H]2O)[C@](C)(O)C[C@H]1C [Gamithromycin]
Conditions | minimum inhibitory concentration [µg/mL]
isolate (source animal id): 10 | 8 (≈ 10.3 µM)
isolate (source animal id): 11 | 8 (≈ 10.3 µM)
isolate (source animal id): 12 | 8 (≈ 10.3 µM)
isolate (source animal id): 19 | 8 (≈ 10.3 µM)
isolate (source animal id): 23 | 4 (≈ 5.15 µM)
isolate (source animal id): 26 | 4 (≈ 5.15 µM)
isolate (source animal id): 98 | 8 (≈ 10.3 µM)
isolate (source animal id): 104 | > 8
isolate (source animal id): 115 | > 8
isolate (source animal id): 117 | 8 (≈ 10.3 µM)
isolate (source animal id): 118 | 8 (≈ 10.3 µM)
isolate (source animal id): 121 | > 8
isolate (source animal id): 124 | 8 (≈ 10.3 µM)
isolate (source animal id): 125 | 8 (≈ 10.3 µM)
isolate (source animal id): 128 | > 8
isolate (source animal id): 131 | > 8
isolate (source animal id): 135 | > 8
isolate (source animal id): 136 | > 8
isolate (source animal id): 140 | > 8
isolate (source animal id): 144 | 8 (≈ 10.3 µM)
isolate (source animal id): 146 | 8 (≈ 10.3 µM)
isolate (source animal id): 150 | > 8
isolate (source animal id): 151 | > 8
isolate (source animal id): 153 | > 8
isolate (source animal id): 155 | 8 (≈ 10.3 µM)
isolate (source animal id): 157 | 4 (≈ 5.15 µM)
isolate (source animal id): 160 | > 8
isolate (source animal id): 164 | > 8
isolate (source animal id): 165 | > 8
isolate (source animal id): 167 | ≤ 1
isolate (source animal id): 168 | 8 (≈ 10.3 µM)
isolate (source animal id): 169 | ≤ 1
isolate (source animal id): 170 | 2 (≈ 2.57 µM)
isolate (source animal id): 171 | ≤ 1
isolate (source animal id): 172 | ≤ 1
isolate (source animal id): 173 | > 8
isolate (source animal id): 174 | ≤ 1
isolate (source animal id): 175 | ≤ 1
isolate (source animal id): 176 | ≤ 1
isolate (source animal id): 177 | ≤ 1
isolate (source animal id): 178 | ≤ 1
isolate (source animal id): 179 | ≤ 1
isolate (source animal id): 182 | 4 (≈ 5.15 µM)
isolate (source animal id): 192 | ≤ 1
isolate (source animal id): 193 | ≤ 1
isolate (source animal id): 195 | 2 (≈ 2.57 µM)
isolate (source animal id): 196 | ≤ 1
isolate (source animal id): 197 | 2 (≈ 2.57 µM)
isolate (source animal id): 198 | > 8
isolate (source animal id): 199 | ≤ 1
isolate (source animal id): 200 | ≤ 1
isolate (source animal id): 201 | ≤ 1
isolate (source animal id): 203 | ≤ 1
isolate (source animal id): 204 | ≤ 1
isolate (source animal id): 205 | > 8
isolate (source animal id): 206 | ≤ 1
isolate (source animal id): 207 | ≤ 1
isolate (source animal id): 208 | ≤ 1
isolate (source animal id): 209 | ≤ 1
isolate (source animal id): 210 | > 8
isolate (source animal id): 213 | ≤ 1
isolate (source animal id): 216 | ≤ 1
isolate (source animal id): 223 | 8 (≈ 10.3 µM)
isolate (source animal id): 227 | ≤ 1
isolate (source animal id): 229 | 8 (≈ 10.3 µM)
isolate (source animal id): 233 | 8 (≈ 10.3 µM)
isolate (source animal id): 234 | 8 (≈ 10.3 µM)
isolate (source animal id): 237 | 8 (≈ 10.3 µM)
isolate (source animal id): 241 | 8 (≈ 10.3 µM)
isolate (source animal id): 245 | 8 (≈ 10.3 µM)
isolate (source animal id): 247 | 8 (≈ 10.3 µM)
isolate (source animal id): 250 | 8 (≈ 10.3 µM)
isolate (source animal id): 254 | 8 (≈ 10.3 µM)
isolate (source animal id): 255 | 8 (≈ 10.3 µM)
isolate (source animal id): 258 | ≤ 1
isolate (source animal id): 261 | 8 (≈ 10.3 µM)
isolate (source animal id): 262 | 8 (≈ 10.3 µM)
isolate (source animal id): 269 | ≤ 1
isolate (source animal id): 270 | 8 (≈ 10.3 µM)
isolate (source animal id): 274 | 8 (≈ 10.3 µM)
isolate (source animal id): 275 | 8 (≈ 10.3 µM)
isolate (source animal id): 276 | 8 (≈ 10.3 µM)
isolate (source animal id): 277 | ≤ 1
isolate (source animal id): 278 | 8 (≈ 10.3 µM)
isolate (source animal id): 279 | 8 (≈ 10.3 µM)
isolate (source animal id): 280 | > 8
isolate (source animal id): 284 | > 8
isolate (source animal id): 285 | > 8
isolate (source animal id): 287 | 8 (≈ 10.3 µM)
isolate (source animal id): 290 | 8 (≈ 10.3 µM)
isolate (source animal id): 294 | 8 (≈ 10.3 µM)
isolate (source animal id): 295 | > 8
isolate (source animal id): 296 | 8 (≈ 10.3 µM)
isolate (source animal id): 307 | 8 (≈ 10.3 µM)
isolate (source animal id): 310 | 8 (≈ 10.3 µM)
isolate (source animal id): 311 | 8 (≈ 10.3 µM)
isolate (source animal id): 312 | > 8
isolate (source animal id): 313 | > 8
isolate (source animal id): 315 | > 8
isolate (source animal id): 316 | > 8

CN[C@@H]1[C@H](O)[C@H](NC)[C@H]2O[C@@]3(O)C(=O)C[C@@H](C)O[C@H]3O[C@@H]2[C@H]1O [Spectinomycin]
Conditions | minimum inhibitory concentration [µg/mL]
isolate (source animal id): 10 | 32 (≈ 96.3 µM)
isolate (source animal id): 11 | 32 (≈ 96.3 µM)
isolate (source animal id): 12 | 32 (≈ 96.3 µM)
isolate (source animal id): 19 | 32 (≈ 96.3 µM)
isolate (source animal id): 23 | 32 (≈ 96.3 µM)
isolate (source animal id): 26 | 32 (≈ 96.3 µM)
isolate (source animal id): 98 | 32 (≈ 96.3 µM)
isolate (source animal id): 104 | ≤ 8
isolate (source animal id): 115 | > 64
isolate (source animal id): 117 | 32 (≈ 96.3 µM)
isolate (source animal id): 118 | 32 (≈ 96.3 µM)
isolate (source animal id): 121 | > 64
isolate (source animal id): 124 | 32 (≈ 96.3 µM)
isolate (source animal id): 125 | 32 (≈ 96.3 µM)
isolate (source animal id): 128 | > 64
isolate (source animal id): 131 | > 64
isolate (source animal id): 135 | > 64
isolate (source animal id): 136 | > 64
isolate (source animal id): 140 | 16 (≈ 48.1 µM)
isolate (source animal id): 144 | 32 (≈ 96.3 µM)
isolate (source animal id): 146 | 32 (≈ 96.3 µM)
isolate (source animal id): 150 | > 64
isolate (source animal id): 151 | > 64
isolate (source animal id): 153 | 16 (≈ 48.1 µM)
isolate (source animal id): 155 | 32 (≈ 96.3 µM)
isolate (source animal id): 157 | 16 (≈ 48.1 µM)
isolate (source animal id): 160 | > 64
isolate (source animal id): 164 | > 64
isolate (source animal id): 165 | > 64
isolate (source animal id): 167 | > 64
isolate (source animal id): 168 | 32 (≈ 96.3 µM)
isolate (source animal id): 169 | 32 (≈ 96.3 µM)
isolate (source animal id): 170 | 32 (≈ 96.3 µM)
isolate (source animal id): 171 | 32 (≈ 96.3 µM)
isolate (source animal id): 172 | > 64
isolate (source animal id): 173 | 32 (≈ 96.3 µM)
isolate (source animal id): 174 | > 64
isolate (source animal id): 175 | > 64
isolate (source animal id): 176 | > 64
isolate (source animal id): 177 | > 64
isolate (source animal id): 178 | > 64
isolate (source animal id): 179 | 32 (≈ 96.3 µM)
isolate (source animal id): 182 | > 64
isolate (source animal id): 192 | > 64
isolate (source animal id): 193 | > 64
isolate (source animal id): 195 | > 64
isolate (source animal id): 196 | > 64
isolate (source animal id): 197 | > 64
isolate (source animal id): 198 | 32 (≈ 96.3 µM)
isolate (source animal id): 199 | 32 (≈ 96.3 µM)
isolate (source animal id): 200 | 32 (≈ 96.3 µM)
isolate (source animal id): 201 | > 64
isolate (source animal id): 203 | > 64
isolate (source animal id): 204 | > 64
isolate (source animal id): 205 | 32 (≈ 96.3 µM)
isolate (source animal id): 206 | > 64
isolate (source animal id): 207 | > 64
isolate (source animal id): 208 | 32 (≈ 96.3 µM)
isolate (source animal id): 209 | > 64
isolate (source animal id): 210 | 32 (≈ 96.3 µM)
isolate (source animal id): 213 | 32 (≈ 96.3 µM)
isolate (source animal id): 216 | > 64
isolate (source animal id): 223 | 32 (≈ 96.3 µM)
isolate (source animal id): 227 | > 64
isolate (source animal id): 229 | 32 (≈ 96.3 µM)
isolate (source animal id): 233 | 32 (≈ 96.3 µM)
isolate (source animal id): 234 | 32 (≈ 96.3 µM)
isolate (source animal id): 237 | 32 (≈ 96.3 µM)
isolate (source animal id): 241 | 16 (≈ 48.1 µM)
isolate (source animal id): 245 | 32 (≈ 96.3 µM)
isolate (source animal id): 247 | 32 (≈ 96.3 µM)
isolate (source animal id): 250 | 16 (≈ 48.1 µM)
isolate (source animal id): 254 | 32 (≈ 96.3 µM)
isolate (source animal id): 255 | 32 (≈ 96.3 µM)
isolate (source animal id): 258 | > 64
isolate (source animal id): 261 | 32 (≈ 96.3 µM)
isolate (source animal id): 262 | 32 (≈ 96.3 µM)
isolate (source animal id): 269 | 32 (≈ 96.3 µM)
isolate (source animal id): 270 | 32 (≈ 96.3 µM)
isolate (source animal id): 274 | 32 (≈ 96.3 µM)
isolate (source animal id): 275 | 32 (≈ 96.3 µM)
isolate (source animal id): 276 | 16 (≈ 48.1 µM)
isolate (source animal id): 277 | 32 (≈ 96.3 µM)
isolate (source animal id): 278 | 32 (≈ 96.3 µM)
isolate (source animal id): 279 | 32 (≈ 96.3 µM)
isolate (source animal id): 280 | 32 (≈ 96.3 µM)
isolate (source animal id): 284 | 32 (≈ 96.3 µM)
isolate (source animal id): 285 | 32 (≈ 96.3 µM)
isolate (source animal id): 287 | 32 (≈ 96.3 µM)
isolate (source animal id): 290 | 32 (≈ 96.3 µM)
isolate (source animal id): 294 | 32 (≈ 96.3 µM)
isolate (source animal id): 295 | 16 (≈ 48.1 µM)
isolate (source animal id): 296 | 32 (≈ 96.3 µM)
isolate (source animal id): 307 | 32 (≈ 96.3 µM)
isolate (source animal id): 310 | 32 (≈ 96.3 µM)
isolate (source animal id): 311 | 16 (≈ 48.1 µM)
isolate (source animal id): 312 | 16 (≈ 48.1 µM)
isolate (source animal id): 313 | 16 (≈ 48.1 µM)
isolate (source animal id): 315 | 32 (≈ 96.3 µM)
isolate (source animal id): 316 | 32 (≈ 96.3 µM)
